Data on 36 molecules can be found in patent US8680139B2 (Progenra, priority 2009, dated 2014).

T1 sequence (Q93009 whole entry): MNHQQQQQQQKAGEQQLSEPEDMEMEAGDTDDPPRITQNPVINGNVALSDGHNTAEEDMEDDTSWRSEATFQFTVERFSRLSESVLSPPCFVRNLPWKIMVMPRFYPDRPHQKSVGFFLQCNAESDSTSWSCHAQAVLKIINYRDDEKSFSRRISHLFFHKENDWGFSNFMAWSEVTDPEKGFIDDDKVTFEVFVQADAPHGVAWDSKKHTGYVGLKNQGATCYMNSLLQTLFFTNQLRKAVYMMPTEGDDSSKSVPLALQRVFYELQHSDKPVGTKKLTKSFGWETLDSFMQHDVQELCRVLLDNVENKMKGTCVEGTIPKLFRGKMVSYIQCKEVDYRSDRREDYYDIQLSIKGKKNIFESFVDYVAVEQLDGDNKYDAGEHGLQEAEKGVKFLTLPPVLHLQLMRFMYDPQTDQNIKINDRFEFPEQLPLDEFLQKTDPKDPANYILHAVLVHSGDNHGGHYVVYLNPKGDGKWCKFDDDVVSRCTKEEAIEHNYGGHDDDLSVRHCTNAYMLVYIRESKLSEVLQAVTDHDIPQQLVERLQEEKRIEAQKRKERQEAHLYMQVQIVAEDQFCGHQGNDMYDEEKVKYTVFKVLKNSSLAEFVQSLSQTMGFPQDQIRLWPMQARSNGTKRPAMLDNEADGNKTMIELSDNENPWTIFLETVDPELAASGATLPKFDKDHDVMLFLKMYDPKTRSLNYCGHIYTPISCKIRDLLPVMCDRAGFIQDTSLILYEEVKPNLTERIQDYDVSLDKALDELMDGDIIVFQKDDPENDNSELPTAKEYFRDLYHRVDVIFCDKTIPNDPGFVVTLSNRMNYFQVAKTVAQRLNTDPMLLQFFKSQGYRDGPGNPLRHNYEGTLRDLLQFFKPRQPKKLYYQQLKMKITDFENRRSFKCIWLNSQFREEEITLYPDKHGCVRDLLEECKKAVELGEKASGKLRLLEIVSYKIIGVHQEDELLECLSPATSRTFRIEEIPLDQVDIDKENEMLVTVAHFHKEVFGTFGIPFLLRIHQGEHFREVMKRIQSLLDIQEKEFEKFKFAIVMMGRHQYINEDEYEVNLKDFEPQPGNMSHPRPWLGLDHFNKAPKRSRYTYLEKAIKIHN

The experiment addresses T1, USP7 (Homo sapiens, UniProt Q93009).
T1 construct: full length human USP7 protein; made in house
Description: USP7, Ub-PLA2 assay. It counts as biochemical. Particulars: Ub-PLA2 / NBD C6-HPC fluorescence, 30 minute preincubation; read-out: EC50 for inhibition of USP7. In a few lines:
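Compounds tested against USP7 with DMSO vehicle control and NEM-treated wells as background. Fluorescence (RFU) read-out; % inhibition normalized per plate to mean DMSO and NEM controls.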
For orientation: EC50 means the concentration at which the effect is half-maximal. Consider `O=C(CNC(=O)c1cc([N+](=O)[O-])c(Sc2c(Cl)cncc2Cl)s1)NCC(F)F` [Example 219, 5-((3,5-dichloropyridin-4-yl)thio)-N-(2-((2,2-difluoroethyl)amino)-2-oxoethyl)-4-nitrothiophene-2-carboxamide], for which the EC50 lay within 1 to 10 µM.
As to `O=C(NC1CN2CCC1CC2)c1cc([N+](=O)[O-])c(Sc2c(Cl)cncc2Cl)s1` (stereo not drawn) [Example 202, 5-((3,5-dichloropyridin-4-yl)thio)-4-nitro-N-(quinuclidin-3-yl)thiophene-2-carboxamide], the EC50 is ≤ 1 µM.
In the case of `COc1ccccc1CCNC(=O)c1cc([N+](=O)[O-])c(Sc2c(Cl)cncc2Cl)s1` [Example 113, 5-((3,5-dichloropyridin-4-yl)thio)-N-(2-methoxyphenethyl)-4-nitrothiophene-2-carboxamide] it was ≤ 1 µM; in that of `COc1cc(NC(=O)c2cc([N+](=O)[O-])c(Sc3c(Cl)cncc3Cl)s2)ccc1OCCCN(C)C` [Example 240, 5-((3,5-dichloropyridin-4-yl)thio)-N-(4-(3-(dimethylamino)propoxy)-3-methoxyphenyl)-4-nitrothiophene-2-carboxamide], ≤ 1 µM; in that of `O=C(NCCC(=O)N1CCCC1)c1cc([N+](=O)[O-])c(Sc2c(Cl)cncc2Cl)s1` [Example 268, 5-((3,5-dichloropyridin-4-yl)thio)-4-nitro-N-(3-oxo-3-(pyrrolidin-1-yl)propyl)thiophene-2-carboxamide], 1 to 10 µM.
In the case of `O=C(CNC(=O)c1cc([N+](=O)[O-])c(Sc2c(Cl)cncc2Cl)s1)NC1CCCCC1` [Example 220] it was 1 to 10 µM; in that of `O=C(NCCC1CCN(Cc2ccccc2)C1)c1cc([N+](=O)[O-])c(Sc2c(Cl)cncc2Cl)s1` (stereo not drawn) [Example 84, N-(2-(1-benzylpyrrolidin-3-yl)ethyl)-5-((3,5-dichloropyridin-4-yl)thio)-4-nitrothiophene-2-carboxamide], > 10 µM; in that of `COc1ccc(NC(=O)c2cc([N+](=O)[O-])c(Sc3c(Cl)cncc3Cl)s2)cc1OC` [Example 170, 5-((3,5-dichloropyridin-4-yl)thio)-4-nitro-N-(3,4-dimethoxyphenyl)thiophene-2-carboxamide], ≤ 1 µM.
In the case of `O=C(Nc1cccc2cccnc12)c1cc([N+](=O)[O-])c(Sc2c(Cl)cncc2Cl)s1` [Example 78, 5-((3,5-dichloropyridin-4-yl)thio)-4-nitro-N-(quinolin-8-yl)thiophene-2-carboxamide] it was > 10 µM.
On to `O=C(NC1CCC(O)CC1)c1cc([N+](=O)[O-])c(Sc2c(Cl)cncc2Cl)s1` (stereo not drawn) [Example 77, 5-((3,5-dichloropyridin-4-yl)thio)-N-(4-hydroxycyclohexyl)-4-nitrothiophene-2-carboxamide], for which the concentration giving a half-maximal response (EC50) was 1 to 10 µM.
For `CN(C)CCCOc1ccc(NC(=O)c2cc(C#N)c(Sc3c(Cl)cncc3Cl)s2)cc1` [Example 204], the EC50 lay in the range of 1 to 10 µM.
For `O=C(NCc1ccccc1)c1cc([N+](=O)[O-])c(Sc2nc3ccccc3s2)s1` [Example 252, 5-(benzo[d]thiazol-2-ylthio)-N-benzyl-4-nitrothiophene-2-carboxamide], the concentration for a half-maximal effect (EC50) lay within 1 to 10 µM.
Turning to `CC(=O)c1ccc(NC(=O)c2cc([N+](=O)[O-])c(Sc3c(Cl)cncc3Cl)s2)cc1` [Example 183, N-(4-acetylphenyl)-5-((3,5-dichloropyridin-4-yl)thio)-4-nitrothiophene-2-carboxamide], the EC50 is ≤ 1 µM.
In the case of `CC(=O)Nc1cccc(CNC(=O)c2cc([N+](=O)[O-])c(Sc3c(Cl)cncc3Cl)s2)c1` [Example 122, N-(3-acetamidobenzyl)-5-((3,5-dichloropyridin-4-yl)thio)-4-nitrothiophene-2-carboxamide] it was ≤ 1 µM; in that of `COc1ccc(CNC(=O)c2cc([N+](=O)[O-])c(Sc3c(Cl)cncc3Cl)s2)cc1OC` [Example 98, 5-((3,5-dichloropyridin-4-yl)thio)-N-(3,4-dimethoxybenzyl)-4-nitrothiophene-2-carboxamide], ≤ 1 µM; in that of `CSCCCNC(=O)c1cc([N+](=O)[O-])c(Sc2c(Cl)cncc2Cl)s1` [Example 194, 5-((3,5-dichloropyridin-4-yl)thio)-N-(3-(methylthio)propyl)-4-nitrothiophene-2-carboxamide], ≤ 1 µM.
Turning to `O=C(NCc1ccc(OC(F)(F)F)cc1)c1cc([N+](=O)[O-])c(Sc2c(Cl)cncc2Cl)s1` [Example 114, 5-((3,5-dichloropyridin-4-yl)thio)-4-nitro-N-(4-(trifluoromethoxy)benzyl)thiophene-2-carboxamide], the 50% effective concentration (EC50) is ≤ 1 µM.
For `O=C(NCCCN1CCC(F)CC1)c1cc([N+](=O)[O-])c(Sc2c(Cl)cncc2Cl)s1` [Example 228, 5-((3,5-dichloropyridin-4-yl)thio)-N-(3-(4-fluoropiperidin-1-yl)propyl)-4-nitrothiophene-2-carboxamide], the half-maximal effective concentration (EC50) is 1 to 10 µM.
For `O=C(NCCCN1CCC(CO)CC1)c1cc([N+](=O)[O-])c(Sc2c(Cl)cncc2Cl)s1` [Example 227, 5-((3,5-dichloropyridin-4-yl)thio)-N-(3-(4-(hydroxymethyl)piperidin-1-yl)propyl)-4-nitrothiophene-2-carboxamide] the value was ≤ 1 µM; for `CC(=O)c1cc([N+](=O)[O-])c(Sc2cc(C(F)(F)F)cc(C(F)(F)F)c2)s1` [Example 40, 1-[5-[3,5-bis(trifluoromethyl)phenyl]sulfanyl-4-nitro-2-thienyl]ethanone], 1 to 10 µM; for `O=C(NCc1ccc2c(c1)CCO2)c1cc([N+](=O)[O-])c(Sc2c(Cl)cncc2Cl)s1` [Example 70, 5-((3,5-dichloropyridin-4-yl)thio)-N-((2,3-dihydrobenzofuran-5-yl)methyl)-4-nitrothiophene-2-carboxamide], 1 to 10 µM.
In the case of `CN1C2CCC1CC(NC(=O)c1cc([N+](=O)[O-])c(Sc3c(Cl)cncc3Cl)s1)C2` (stereo not drawn) [Example 184, 5-((3,5-dichloropyridin-4-yl)thio)-N-(8-methyl-8-azabicyclo[3.2.1]octan-3-yl)-4-nitrothiophene-2-carboxamide] it was ≤ 1 µM.
For `CC(C)N1CCC(NC(=O)c2cc([N+](=O)[O-])c(Sc3nc4ccccc4s3)s2)CC1` [Example 253, 5-(benzo[d]thiazol-2-ylthio)-N-(1-isopropylpiperidin-4-yl)-4-nitrothiophene-2-carboxamide] the value was 1 to 10 µM; for `CN1CCC(NC(=O)c2cc([N+](=O)[O-])c(Sc3c(F)cncc3F)s2)CC1` [Example 256, 5-((3,5-difluoropyridin-4-yl)thio)-N-(1-methylpiperidin-4-yl)-4-nitrothiophene-2-carboxamide], 1 to 10 µM; for `CSCCNC(=O)c1cc([N+](=O)[O-])c(Sc2c(Cl)cncc2Cl)s1` [Example 50, 5-((3,5-dichloropyridin-4-yl)thio)-N-(2-(methylthio)ethyl)-4-nitrothiophene-2-carboxamide], 1 to 10 µM.
Take `CN1CCCC(NC(=O)c2cc([N+](=O)[O-])c(Sc3c(Cl)cncc3Cl)s2)C1` (stereo not drawn) [Example 189, 5-((3,5-dichloropyridin-4-yl)thio)-N-(1-methylpiperidin-3-yl)-4-nitrothiophene-2-carboxamide]: the EC50 is ≤ 1 µM.
In the case of `O=C(O)CNC(=O)c1cc([N+](=O)[O-])c(Sc2c(Cl)cncc2Cl)s1` [Example 210, 2-(5-((3,5-dichloropyridin-4-yl)thio)-4-nitrothiophene-2-carboxamido)acetic acid] it was 1 to 10 µM; in that of `O=C(NCCN1CCN(Cc2ccccc2)CC1)c1cc([N+](=O)[O-])c(Sc2c(Cl)cncc2Cl)s1` [Example 117, N-(2-(4-benzylpiperazin-1-yl)ethyl)-5-((3,5-dichloropyridin-4-yl)thio)-4-nitrothiophene-2-carboxamide], ≤ 1 µM.
In the case of `COC(=O)c1cc([N+](=O)[O-])c(Sc2nc3nc(C)cc(C)n3n2)s1` [Example 266, Methyl 5-((5,7-dimethyl-[1,2,4]triazolo[1,5-a]pyrimidin-2-yl)thio)-4-nitrothiophene-2-carboxylate] it was > 10 µM.
In the case of `O=C(NCCCN1CCCCC1)c1cc([N+](=O)[O-])c(Sc2ccc(F)cc2F)s1` [Example 267, 5-((2,4-difluorophenyl)thio)-4-nitro-N-(3-(piperidin-1-yl)propyl)thiophene-2-carboxamide] it was > 10 µM; in that of `CC(=O)c1cc(I)c(Sc2ccc(Cl)cc2Cl)s1` [Example 20, 1-[5-(2,4-dichlorophenyl)sulfanyl-4-iodo-2-thienyl]ethanone], > 10 µM; in that of `O=C(NCc1ccc(Cl)nc1)c1cc([N+](=O)[O-])c(Sc2c(Cl)cncc2Cl)s1` [Example 162, N-((6-chloropyridin-3-yl)methyl)-5-((3,5-dichloropyridin-4-yl)thio)-4-nitrothiophene-2-carboxamide], ≤ 1 µM.
In the case of `CC(C)(C)OC(=O)N1CCC(NC(=O)c2cc([N+](=O)[O-])c(Sc3c(Cl)cncc3Cl)s2)CC1` [Example 85, tert-butyl 4-(5-((3,5-dichloropyridin-4-yl)thio)-4-nitrothiophene-2-carboxamido)piperidine-1-carboxylate], the EC50 fell in the range of 1 to 10 µM.
In the case of `Cn1nccc1NC(=O)c1cc([N+](=O)[O-])c(Sc2c(Cl)cncc2Cl)s1` [Example 167, 5-((3,5-dichloropyridin-4-yl)thio)-N-(1-methyl-1H-pyrazol-5-yl)-4-nitrothiophene-2-carboxamide] it was ≤ 1 µM; in that of `O=C(NCc1ccccc1)c1cc([N+](=O)[O-])c(Sc2c(Cl)cncc2Cl)s1` [Example 45, N-benzyl-5-[(3,5-dichloro-4-pyridyl)sulfanyl]-4-nitro-thiophene-2-carboxamide], 1 to 10 µM.
For `CN1CCC(CNC(=O)c2cc([N+](=O)[O-])c(Sc3c(Cl)cncc3Cl)s2)CC1` [Example 190, 5-((3,5-dichloropyridin-4-yl)thio)-N-((1-methylpiperidin-4-yl)methyl)-4-nitrothiophene-2-carboxamide] the value was ≤ 1 µM.
